The values below come from patent US20130184337A1, “SODIUM ASCORBATE STIMULATION OF ELASTOGENESIS” (THE HOSPITAL FOR SICK CHILDREN, priority 2012, published 2013).

Assay [1] relates to normal dermal fibroblasts. The experiment in a line: Elastic fiber deposition (immuno-staining morphometry, [3H]-valine insoluble elastin) in monolayer cultures. In kind it is cell-based, human. As to conditions: for elastogenic effects of 100 μM SA after pre-treatment with the inhibitor (mRNA, tropoelastin, insoluble elastin, elastic fibers): inhibitor pre-incubation then 100 μM SA, probenecid 400 μM. The method, then:
(§1) Cell Cultures—Fibroblasts initially grew out from the explants of these full thickness skin biopsies and were maintained. The primary cultures of fat-derived fibroblasts obtained from Thermogenesis (Rancho Cordova, Calif.) were also tested. In all described experiments, 2-4 passages of both kinds of fibroblasts were used. In experiments aimed at assessing ECM production, cells were initially plated at a concentration of 100,000 cells/dish.
(§2) Immuno-staining—All cultures maintained in the presence and absence of indicated reagents were either fixed in cold 100% methanol at −20° C. (for detection of elastin) or in 4% paraformaldehyde at room temperature (for detection of collagen I). The multiple parallel cultures were then incubated with 10 μg/ml of polyclonal antibody to tropoelastin (Elastin Products, Owensville, Mich.), or polyclonal antibody to collagen type I (Chemicon, Temecula, Calif.). Cultures were then incubated with the respective fluorescein-conjugated goat anti-rabbit, goat anti-mouse, or rabbit anti-goat secondary antibodies. Nuclei were counterstained with propidium iodide (Sigma, Sigma, St. Louis, Mo.). All of the cultures were then examined with a Nikon Eclipse E1000 microscope attached to a cooled CCD camera (QImaging, Retiga EX) and analyzed by the computer-generated morphometric analysis system (Image-Pro Plus software, Media Cybernetics, Silver Springs, Md.) as previously described.
Quantitative Assays of Insoluble Elastin—Fibroblasts were grown to confluency in 35-mm culture dishes (100,000 cells/dish). Next, 2 μCi of [3H]-valine/ml (Amersham Biosciences Ltd. Oakville, Canada), were added to each dish along with or without the indicated treatments. At the end of each experiment, the levels of metabolically labeled NaOH-insoluble elastin present in individual cultures were assayed and normalized per their DNA content.

In assay [2] the test system is reactive oxygen species (ROS). The experiment in a line: Intracellular ROS with CM-H2DCFDA probe (fluorescence microscope, flow cytophotometry). In kind it is cell-based, human. The method, then:
Quantification of Intracellular free radicals-reactive oxygen species (ROS)—To assess the levels of ROS, quadruplicate cultures of normal skin fibroblasts were exposed to 10 μM of ROS-sensitive CM-H2DCFDA fluorescent probe (Molecular Probes, Eugene, Oreg.) for 30 minutes. This probe passively diffuses into the cell interior and only upon oxidation is a fluorescent product released that can be visualized under a fluorescent microscope or captured by flow cytophotometry when excited at 480 nm. Fibroblasts were then maintained for 30 minutes in the presence or absence of 400 μM probenecid, then incubated either for 2 or 24 hours with and without 100 μM AA or 100 μM SA. At the end of these periods the images were captured using a fluorescent microscope under identical parameters of contrast and brightness. The ROS production was also assessed by flow cytophotometry (λ excitation 480 nm; λ emission 520 nm), using FACSCalibur, Beckton Dickinson Instrument.

Assay [3] deals with T1, IGF-1 receptor (Homo sapiens, UniProt P08069).
T1 construct: immuno-precipitated with antibody to β subunit of IGF-1R and detected by Western blotting with anti-phospho-tyrosine antibody; endogenous in cells; host or cells: cultured dermal fibroblasts
The experiment in a line: IGF-1R phosphorylation (immuno-precipitation, anti-phospho-tyrosine Western blot). In kind it is cell-based. The note with it: pretreated and maintained with inhibitor, 100 μM SA. The method, then: At the end of each experiment cells were submerged in the lysis buffer containing a broad-range phosphatase inhibitor. The polyclonal antibodies recognizing either the β subunits of the IGF-IR or the β subunit of the insulin receptor were immobilized on separate sets of the IgG-bearing magnetic beads (Invitrogen Canada Inc, Burlington, ON) and then incubated for 1 hour with the aliquots of the cell lysates containing 400 μg of protein as described in the manufacturer protocol. The beads bearing the resulting immuno-precipitation products were re-suspended in sample buffer and the released proteins were resolved with SDS-PAGE and subjected to Western blotting with a monoclonal anti-p-Tyr (PY99) antibody from Santa Cruz Biotechnology Inc. (Santa Cruz, Calif.) and then with HRP-conjugated goat anti-mouse secondary antibody.
(In general: Immunoblotting shows a protein as a band on a membrane.)

The test system of assay [4] is normal dermal fibroblasts. The experiment in a line: Collagen fiber deposition (immuno-staining of collagen type I, morphometry). In kind it is cell-based, human. Here is the method:
as §1, with “cells/dish. Confluent cultures were then maintained either in serum-free medium (DMEM) or in medium supplemented with 5% FBS in the presence of different reagents that were added 1 hour before treatments with SA.” for “cells/dish.”
as §2

In assay [5] the test system is explants of dermal scars. The experiment in a line: Organ culture of skin explants (histochemistry, insoluble elastin). In kind it is cell-based, human. As to conditions: 1 mM DMOG alone. Here is the method: Organ culture of skin explants—Fragments of normal skin, stretch-marked skin and dermal scars collected during plastic surgery procedures were cut into multiple 4 mm2 pieces and maintained for 7 days in DMEM medium containing 5% FBS, […] The parallel quadruplicate explants from each experimental group were additionally maintained in the presence 2 μCi of [3H]-valine/ml and then subjected to the assay of insoluble elastin. The parallel explants from each experimental groups were also evaluated after pentachrome Movat's staining which allows for clear marking of elastic fibers. In each experimental group, 50 sections derived from quadruplicate explants were analyzed.

In assay [6] the test system is fibroblasts derived from dermal stretch marks. The assay can be described thus: Collagen and elastic fiber deposition in stretch-mark fibroblast cultures. As to conditions: 200 μM, 24 hour-old cultures. In kind it is cell-based, human. Here is the method:
Cell Cultures-Fibroblasts initially grew out from the explants of these full thickness skin biopsies and were maintained. The primary cultures of fat-derived fibroblasts obtained from Thermogenesis (Rancho Cordova, Calif.) were also tested. In all described experiments, 2-4 passages of both kinds of fibroblasts were used. In experiments aimed at assessing ECM production, cells were initially plated at a concentration of 100,000 cells/dish. […] Immuno-staining-All cultures maintained in the presence and absence of indicated reagents were either fixed in cold 100% methanol at -20° C. (for detection of elastin) or in 4% paraformaldehyde at room temperature (for detection of collagen I). The multiple parallel cultures were then incubated with 10 μg/ml of polyclonal antibody to tropoelastin (Elastin Products, Owensville, Mich.), or polyclonal antibody to collagen type I (Chemicon, Temecula, Calif.). Cultures were then incubated with the respective fluorescein-conjugated goat anti-rabbit, goat anti-mouse, or rabbit anti-goat secondary antibodies. Nuclei were counterstained with propidium iodide (Sigma, Sigma, St. Louis, Mo.). All of the cultures were then examined with a Nikon Eclipse […] microscope attached to a cooled CCD camera (QImaging, Retiga EX) and analyzed by the computer-generated morphometric analysis system (Image-Pro Plus software, Media Cybernetics, Silver Springs, Md.) as previously described. Quantitative Assays of Insoluble Elastin-Fibroblasts were grown to confluency in 35-mm culture dishes (100,000 cells/dish). Next, 2 μCi of [3H]-valine/ml (Amersham Biosciences Ltd. Oakville, Canada), were added to each dish along with or without the indicated treatments. At the end of each experiment, the levels of metabolically labeled NaOH-insoluble elastin present in individual cultures were assayed and normalized per their DNA content.

Where [7] appears, read: DMOG added along with 100 μM SA.

Entries after “also recorded” stand apart in the source; their conditions may differ.

T1 sequence (P08069 741-1367 limits assumed): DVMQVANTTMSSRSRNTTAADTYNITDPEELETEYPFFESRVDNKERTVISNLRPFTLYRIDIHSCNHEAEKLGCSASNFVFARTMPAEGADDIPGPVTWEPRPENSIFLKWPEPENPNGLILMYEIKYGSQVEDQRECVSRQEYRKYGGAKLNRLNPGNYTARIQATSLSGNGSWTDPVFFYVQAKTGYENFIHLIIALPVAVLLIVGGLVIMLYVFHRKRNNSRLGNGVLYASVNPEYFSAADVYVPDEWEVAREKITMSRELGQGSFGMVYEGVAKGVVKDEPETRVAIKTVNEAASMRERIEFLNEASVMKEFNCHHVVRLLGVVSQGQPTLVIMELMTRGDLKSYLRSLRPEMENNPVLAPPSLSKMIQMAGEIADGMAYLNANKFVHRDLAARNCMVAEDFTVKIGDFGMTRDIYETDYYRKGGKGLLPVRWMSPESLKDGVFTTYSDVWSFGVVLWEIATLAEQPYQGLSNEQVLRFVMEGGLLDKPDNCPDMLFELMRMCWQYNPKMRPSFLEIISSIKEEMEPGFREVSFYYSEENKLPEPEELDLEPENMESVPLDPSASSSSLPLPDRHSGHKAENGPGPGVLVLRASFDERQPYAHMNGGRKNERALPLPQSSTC
T1 sequence (P08069 31-736 partner limits assumed): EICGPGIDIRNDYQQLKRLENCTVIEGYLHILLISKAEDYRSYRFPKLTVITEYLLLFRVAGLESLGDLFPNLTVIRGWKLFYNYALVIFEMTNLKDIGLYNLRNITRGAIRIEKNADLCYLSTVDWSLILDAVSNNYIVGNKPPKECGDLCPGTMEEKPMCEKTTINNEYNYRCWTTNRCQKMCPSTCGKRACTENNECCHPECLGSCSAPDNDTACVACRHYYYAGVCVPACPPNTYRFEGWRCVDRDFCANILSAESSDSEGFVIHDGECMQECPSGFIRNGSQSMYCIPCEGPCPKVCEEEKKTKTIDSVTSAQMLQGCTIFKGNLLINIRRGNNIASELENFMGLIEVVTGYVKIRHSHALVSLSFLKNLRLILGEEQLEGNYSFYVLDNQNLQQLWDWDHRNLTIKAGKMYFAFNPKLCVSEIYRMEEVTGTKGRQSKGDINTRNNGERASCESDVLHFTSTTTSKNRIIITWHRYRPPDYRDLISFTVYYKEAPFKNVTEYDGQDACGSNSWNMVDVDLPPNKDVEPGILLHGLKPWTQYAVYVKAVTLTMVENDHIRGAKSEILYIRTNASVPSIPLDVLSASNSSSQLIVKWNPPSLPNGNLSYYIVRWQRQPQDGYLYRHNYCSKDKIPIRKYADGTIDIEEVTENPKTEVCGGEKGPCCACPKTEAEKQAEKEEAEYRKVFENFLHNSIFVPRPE

Regarding `COc1ccc(CNc2nc(N(CCO)CCO)nc3c2ncn3C(C)C)cc1` [CVT313, reference compound], the “elastogenic effects of 100 μM SA after pre-treatment with the inhibitor (mRNA, tropoelastin, insoluble elastin, elastic fibers)” value in assay [1] (5% FBS) was “eliminated elastogenic effects of 100 μM SA”. “IGF-1: human IGF-I from Sigma-Aldrich, elastogenic stimulator”: in assay [1] (50 ng/ml exogenous IGF-1, 24-hour treatment, 5% FBS), the elastogenic effects entry is recorded as “strong elastogenic effects”. Regarding `CCCN(CCC)S(=O)(=O)c1ccc(C(=O)O)cc1` [probenecid, Probenecid, reference compound], the “basic deposition of elastic fibers” value in assay [1] (100-400 μM probenecid alone, 24 hours, versus untreated control) is “did not demonstrate any decrease in their basic deposition of elastic fibers”. In assay [1] (5% FBS), the “elastogenic effects of 100 μM SA after pre-treatment with the inhibitor (mRNA, tropoelastin, insoluble elastin, elastic fibers)” value is “eliminated the elastogenetic effects of 100 μM SA; also recorded: averts the induction of elastogenic effects”. Besides, the “SA-induced decrease of ROS after probenecid pre-incubation” value in assay [2] (probenecid pre-incubation, then 100 μM SA for 2 hours) is given as “could not be observed”. For the compound `COc1cc([C@@H]2c3cc4c(cc3[C@H](O)[C@H]3COC(=O)[C@@H]23)OCO4)cc(OC)c1OC` [PPP, reference compound], in assay [3], the “SA-induced enhancement of IGF-1R phosphorylation in inhibitor-pretreated cultures” value is listed as “eliminated”. Regarding `COC(=O)CNC(=O)C(=O)OC` [DMOG, reference compound], the “SA-enhanced production of elastic fibers” value in assay [1] (setting [7]) is on record as “did not interfere with the enhanced production of elastic fibers; also recorded: does not diminish the elastogenic effect of SA”. Also, in assay [4] (setting [7]), the “deposition of collagen fibers” value is “inhibits the deposition of collagen fibers”. Also, the “elastic fibers in ECM” value in assay [5] is listed as “did not revealed any elastic fibers”.

Regarding `O=C1O[C@H]([C@@H](O)CO)C(O)=C1O` [AA, L-ascorbic acid], the “deposition of immuno-detected collagen fibers” value in assay [4] (100 μM, 24-hour-old cultures, 5% FBS) was “stimulated collagen deposition”. Further, the “levels of intracellular ROS” value in assay [2] (100 μM, 2 hours) is given as “did not display any decrease in ROS contents”. Further, the “production of elastic fibers / elastogenesis” value in assay [6] is “selective inhibition of new elastogenesis”. With “TGF-[…]1: elastogenic stimulator (TGF-β1, Greek letter lost)”, in assay [1] (1 ng/ml TGF-[…]1), the elastogenesis entry is recorded as “increase in elastogenesis”. `CC(C)(C)n1nc(-c2ccc(Cl)cc2)c2c(N)ncnc21` [PP2, reference compound]: in assay [1] (5% FBS), the “elastogenic effects of 100 μM SA after pre-treatment with the inhibitor (mRNA, tropoelastin, insoluble elastin, elastic fibers)” value is on record as “did not trigger elastogenic effects; also recorded: abolish all elastogenic effects”. In addition, in assay [3], the “SA-induced enhancement of IGF-1R phosphorylation in inhibitor-pretreated cultures” value was “eliminated”.
